The assay relates to SL-induced scratching behavior in mice. As to the kind of experiment: Inhibitory effect against sodium laurate-induced scratching behavior in mice. It counts as in vivo, male ICR mice. Conditions: topical; for (b) average percentage of the number of scratches for 60 minutes relative to solvent control group taken as 100% / (a) mean plus/minus standard deviation of the number of scratches for 60 minutes: 10% SL 50 μL on rostral back, 90 min later 50 μL of 2.5% by mass test substance in 50% ethanol; for (a) mean plus/minus standard deviation of the number of scratches for 60 minutes: solvent control 80±2; for judgment of effectiveness as HDC activation inhibitor (antipruritic agent); effective if number of scratches is 80% or less of solvent control: 10% SL, 2.5% by mass test substance in 50% ethanol. Here is the method: Test substances were evaluated for their HDC activation inhibitor (antipruritic agent) effect on the basis of their inhibitory effect on mice's scratching behavior induced by irritation with SL. The test substances used were apigenin, luteolin, sterubin, prunetin, tannic acid, chlorogenic acid, resveratrol, diphenhydramine hydrochloride, and d-chlorpheniramine maleate. Among these substances, diphenhydramine hydrochloride and d-chlorpheniramine maleate were conventionally known as antihistamic agents and served as comparative test substances.
Procedure: the test animals used were male ICR mice aged 7-8 weeks. At least 3 days before the test was conducted, the mice were shaved over a 6 cm^2 (2×3 cm) area on the rostral back.
The mice were divided into test substance group (n=3 or 4) and solvent control group (n=3). Fifty microliters of a 10% SL aqueous solution was applied to the rostral back of the mice to induce the mice's scratching behavior. Ninety minutes after the application of the SL solution, fifty microliters of a solution prepared with 50% ethanol to give a test substance concentration of 2.5% by mass was applied to the rostral back of the mice of the test substance group, and fifty microliters of 50% ethanol alone was applied to that of the solvent control group. The scratching behavior in the mice was evaluated by the following procedure.
More specifically, the mice treated as above were housed in acrylic cages (26×18×30 cm) divided into 4 sections, one mouse per section, and after the mice were acclimated for at least 30 minutes in an unattended environment, the behavior of the mice was recorded on video for 60 minutes. The recorded video was reviewed to check for the scratching behavior of the mice and visually count the number of a series of scratching behaviors which consist of an animal scratching the rostral back with a posterior leg and putting down the leg. Additionally, in the untreated group (n=4), the mice shaved on the rostral back but not treated with any of a SL solution, a test substance or 50% ethanol were evaluated for their scratching behavior by the same procedure.
According to these evaluation results, the number of scratches for 60 minutes is about 80 to 90 times in the solvent control, diphenhydramine hydrochloride, and d-chlorpheniramine maleate groups, while that number is about 40 times or less in all the test substance groups from apigenin to resveratrol. Regarding the inhibitory effect of the test substances on the number of scratches in mice, a possible criterion for judgment is that a test substance be judged to be effective as the HDC activation inhibitor (antipruritic agent) of the present invention if the number of scratches in the test substance group is 80% or less of that in the solvent control group.
In addition, with regard to FIG. 4, the values of the following two variables are listed below for each group: (a) the mean plus/minus standard deviation of the number of scratches for 60 minutes, and (b) the average value for the percentage of the number of scratches for 60 minutes in each group relative to that in the solvent control group which is taken as 100%.

Each structure is given as a SMILES string. Counter-ions that a name gives are not always drawn.

As for `O=c1cc(-c2ccc(O)cc2)oc2cc(O)cc(O)c12` [Apigenin, apigenin], the “(b) average percentage of the number of scratches for 60 minutes relative to solvent control group taken as 100%” value came out at 40.5% and the “(a) mean plus/minus standard deviation of the number of scratches for 60 minutes” value (“(a) mean plus/minus standard deviation” for short) stood at 32±5.

Regarding `O=C(/C=C/c1ccc(O)c(O)c1)O[C@@H]1C[C@](O)(C(=O)O)C[C@@H](O)[C@H]1O` [Chlorogenic acid, chlorogenic acid], the “(b) average percentage of the number of scratches for 60 minutes relative to solvent control group taken as 100%” value was found to be 50.8% and the “(a) mean plus/minus standard deviation” value is listed as 41±8.

With `CN(C)CC[C@@H](c1ccc(Cl)cc1)c1ccccn1.O=C(O)/C=C\C(=O)O` [D-chlorpheniramine maleate, d-chlorpheniramine maleate, reference compound], the “(b) average percentage of the number of scratches for 60 minutes relative to solvent control group taken as 100%” value is given as 113.6%, the “(a) mean plus/minus standard deviation” value worked out at 91±28 and the “judgment of effectiveness as HDC activation inhibitor (antipruritic agent); effective if number of scratches is 80% or less of solvent control” value is given as “not certain”.

Take `CN(C)CCOC(c1ccccc1)c1ccccc1` [Diphenhydramine hydrochloride, diphenhydramine hydrochloride, reference compound]: the “(b) average percentage of the number of scratches for 60 minutes relative to solvent control group taken as 100%” value came out at 93.8%, the “(a) mean plus/minus standard deviation” value came to 75±25 and the “judgment of effectiveness as HDC activation inhibitor (antipruritic agent); effective if number of scratches is 80% or less of solvent control” value is listed as “not certain”.

For `O=c1cc(-c2ccc(O)c(O)c2)oc2cc(O)cc(O)c12` [Luteolin, luteolin], the “(b) average percentage of the number of scratches for 60 minutes relative to solvent control group taken as 100%” value turned out to be 43.0% and the “(a) mean plus/minus standard deviation” value was 34±3.

With `COc1cc(O)c2c(=O)c(-c3ccc(O)cc3)coc2c1` [Prunetin, prunetin], the “(b) average percentage of the number of scratches for 60 minutes relative to solvent control group taken as 100%” value turned out to be 52.7% and the “(a) mean plus/minus standard deviation” value worked out at 42±11.

For `Oc1ccc(/C=C/c2cc(O)cc(O)c2)cc1` [Resveratrol, 3,5,4′-trihydroxy-trans-stilbene], the “(b) average percentage of the number of scratches for 60 minutes relative to solvent control group taken as 100%” value is listed as 31.7% and the “(a) mean plus/minus standard deviation” value came out at 25±14.

Turning to `COc1cc(O)c2c(c1)O[C@H](c1ccc(O)c(O)c1)CC2=O` [Sterubin, sterubin], the “(b) average percentage of the number of scratches for 60 minutes relative to solvent control group taken as 100%” value amounted to 44.4% and the “(a) mean plus/minus standard deviation” value was 35±14.

As for `O=C(OC[C@H]1O[C@@H](OC(=O)c2cc(O)c(O)c(OC(=O)c3cc(O)c(O)c(O)c3)c2)[C@H](OC(=O)c2cc(O)c(O)c(OC(=O)c3cc(O)c(O)c(O)c3)c2)[C@@H](OC(=O)c2cc(O)c(O)c(OC(=O)c3cc(O)c(O)c(O)c3)c2)[C@@H]1OC(=O)c1cc(O)c(O)c(OC(=O)c2cc(O)c(O)c(O)c2)c1)c1cc(O)c(O)c(OC(=O)c2cc(O)c(O)c(O)c2)c1` [Tannic acid, tannic acid], the “(b) average percentage of the number of scratches for 60 minutes relative to solvent control group taken as 100%” value was found to be 53.7% and the “(a) mean plus/minus standard deviation” value was determined as 43±22.

Values taken from patent publication US20150202243A1, “HDC Activation Inhibitor, HDC Activation Inhibition Composition, Antipruritic Agent, and Antipruritic Agent Composition” (HOYU CO., LTD., priority 2012, published 2015).
